This assay deals with T1, succinate receptor 1 (SUCNR1; GPR91) (Mus musculus, UniProt Q99MT6).
T1 construct: native receptor in tracheal TRPM5+ brush cells (ex vivo whole mount)
T1 sequence (Q99MT6 1-317): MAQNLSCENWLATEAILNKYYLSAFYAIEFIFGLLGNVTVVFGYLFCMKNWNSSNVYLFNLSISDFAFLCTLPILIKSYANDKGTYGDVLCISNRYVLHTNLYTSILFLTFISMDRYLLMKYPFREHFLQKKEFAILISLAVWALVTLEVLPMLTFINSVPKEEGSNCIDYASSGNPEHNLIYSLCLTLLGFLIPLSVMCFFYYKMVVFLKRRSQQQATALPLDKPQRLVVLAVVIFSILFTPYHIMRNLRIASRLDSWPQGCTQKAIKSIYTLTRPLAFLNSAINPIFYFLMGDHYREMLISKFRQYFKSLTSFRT
In words: Ca2+ imaging (GCaMP6f) concentration-response in brush cells; Ca2+ wave lost in Sucnr1-/- mice.

As a reminder, the EC50 is the concentration at which the effect is half-maximal. In the case of `O=C(O)CCC(=O)O` [succinate], the EC50 was 335 ± 5 µM.

For the origin of these results see publication PMC10396310, “A succinate/SUCNR1-brush cell defense program in the tracheal epithelium” (Science Advances, 2023).
